According to ChEMBL document CHEMBL4359906, “Design and synthesis of new N-terminal fatty acid modified-antimicrobial peptide analogues with potent in vitro biological activity” (Eur J Med Chem, 2019):
Values after ≈ are worked out from the molar mass of the structure shown. Active and inactive are the calls of the source. The calls are words filed in the database; no cut-off is given here.

How the values were obtained:
Escherichia coli [1] = assay: Disruption of membrane integrity in Escherichia coli ATCC 25922 assessed as membrane damage by measuring PI fluorescence at 4 times of MIC incubated for 1 hr by PI dye based flow cytometric analysis (reference value: 1.35%); assay type: functional
Escherichia coli [2] = assay: Ratio of antibacterial activity against Escherichia coli ATCC 25922 in presence of NaCl to antibacterial activity against Escherichia coli ATCC 25922; assay type: functional
Pseudomonas aeruginosa [3] = assay: Antibacterial activity against Pseudomonas aeruginosa ATCC 27853 after 18 hrs by CLSI based broth microdilution method; assay type: functional; conditions: ATCC 27853, 18 h
Escherichia coli [4] = assay: Induction of membrane disruption in Escherichia coli ATCC 25922 assessed as degeneration in membrane at 4 times of MIC after 2 hrs by SEM analysis; assay type: functional, organism-based
Escherichia coli [5] = assay: Induction of inner membrane permeabilization in Escherichia coli ATCC 43837 assessed as increase in ONPG release at 1 to 2 times of MIC by ONPG dye based assay; assay type: organism-based
Klebsiella pneumoniae [6] = assay: Potentiation of polymyxin B-induced antibacterial activity against Klebsiella pneumoniae ATCC 700603 assessed as FICI after 18 hrs by checker board assay; assay type: functional
Escherichia coli [7] = assay: Antibacterial activity against Escherichia coli ATCC 25922 after 18 hrs by CLSI based broth microdilution method; assay type: functional; conditions: ATCC 25922, 18 h
[8] = Selectivity index, ratio of MHC10 for human RBC to geometric mean of peptide MIC for gram positive bacteria; assay type: toxicity; conditions: human red blood cells, read-out: Selectivity Index
Staphylococcus aureus [9] = assay: Ratio of antibacterial activity against Staphylococcus aureus ATCC 25923 in presence of FeCl3 to antibacterial activity against Staphylococcus aureus ATCC 25923; assay type: functional
Klebsiella pneumoniae [10] = assay: Potentiation of rifampicin-induced antibacterial activity against Klebsiella pneumoniae ATCC 700603 assessed as FICI after 18 hrs by checker board assay; assay type: functional
Staphylococcus aureus [11] = assay: Ratio of antibacterial activity against Staphylococcus aureus ATCC 25923 in presence of MgCl2 to antibacterial activity against Staphylococcus aureus ATCC 25923; assay type: functional
Escherichia coli [12] = assay: Induction of membrane disruption in Escherichia coli ATCC 25922 assessed as fracture in membrane at 4 times of MIC after 2 hrs by SEM analysis; assay type: functional, organism-based
DNA = assay: Binding affinity to Escherichia coli ATCC 25922 genomic DNA after 30 mins by agarose gel electrophoresis; assay type: nucleic-acid assay
Escherichia coli [13] = assay: Potentiation of rifampicin-induced antibacterial activity against Escherichia coli ATCC 25922 assessed as FICI after 18 hrs by checker board assay; assay type: functional
Escherichia coli [14] = assay: Antimicrobial activity against Escherichia coli ATCC 25922 at 1 mM preincubated for 6 hrs in presence of 2 ug/ml chymotrypsin and measured after 18 hrs by microplate reader analysis; assay type: functional, organism-based
Escherichia coli [15] = assay: Antibiofilm activity against Escherichia coli ATCC 25922 after 24 hrs by crystal violet staining based assay; assay type: functional, organism-based
Escherichia coli [16] = assay: Disruption of membrane integrity in Escherichia coli ATCC 25922 assessed as membrane damage by measuring PI fluorescence at 2 times of MIC incubated for 1 hr by PI dye based flow cytometric analysis (reference value: 1.35%); assay type: functional
Pseudomonas aeruginosa [17] = assay: Potentiation of polymyxin B-induced antibacterial activity against Pseudomonas aeruginosa ATCC 27853 assessed as FICI after 18 hrs by checker board assay; assay type: functional
Escherichia coli [18] = assay: Antibacterial activity against Escherichia coli ATCC 43837 after 18 hrs by CLSI based broth microdilution method; assay type: functional; conditions: ATCC 43837, 18 h
Escherichia coli [19] = assay: Disruption of membrane integrity in Escherichia coli ATCC 25922 assessed as membrane damage by measuring PI fluorescence incubated for 1 hr by PI dye based flow cytometric analysis; assay type: functional, organism-based
Escherichia coli [20] = assay: Antimicrobial activity against Escherichia coli ATCC 25922 at 1 mM preincubated for 6 hrs in presence of 2000 ug/ml trypsin and measured after 18 hrs by microplate reader analysis; assay type: functional, organism-based
Escherichia coli [21] = assay: Potentiation of polymyxin B-induced antibacterial activity against Escherichia coli ATCC 25922 assessed as FICI after 18 hrs by checker board assay; assay type: functional
Escherichia coli [22] = assay: Ratio of MIC for Escherichia coli ATCC 25922 preincubated for 6 hrs in presence of 10% mouse serum and measured after 18 hrs to MIC for antibacterial activity against Escherichia coli ATCC 25922 after 18 hrs; assay type: functional
Escherichia coli [23] = assay: Antibiofilm activity against Escherichia coli ATCC 25922 at 2 times MIC after 24 hrs by crystal violet staining based assay; assay type: functional, organism-based
Pseudomonas aeruginosa [24] = assay: Antibiofilm activity against Pseudomonas aeruginosa ATCC 27853 at 0.25 to 2 times of MIC after 24 hrs by crystal violet staining based assay; assay type: functional, organism-based
Escherichia coli [25] = assay: Antibacterial activity against Escherichia coli ATCC 25922 at 0.5 times MIC incubated for 18 hrs measured for 15 passages by CLSI based broth microdilution method; assay type: functional, organism-based
Staphylococcus aureus [26] = assay: Antibacterial activity against methicillin-resistant Staphylococcus aureus 936 after 18 hrs by CLSI based broth microdilution method; assay type: functional; conditions: Staphylococcus aureus, 936, 18 h
Staphylococcus aureus [27] = assay: Ratio of antibacterial activity against Staphylococcus aureus ATCC 25923 in presence of KCl to antibacterial activity against Staphylococcus aureus ATCC 25923; assay type: functional
Bacillus subtilis = assay: Antibacterial activity against Bacillus subtilis ATCC 23857 after 18 hrs by CLSI based broth microdilution method; assay type: functional; conditions: ATCC 23857, 18 h
Erythrocyte = assay: Hemolytic activity in human RBC measured after 1 hr by microplate reader analysis; assay type: ADME, cell-based
Staphylococcus aureus [28] = assay: Ratio of antibacterial activity against Staphylococcus aureus ATCC 25923 in presence of NaCl to antibacterial activity against Staphylococcus aureus ATCC 25923; assay type: functional
Staphylococcus aureus [29] = assay: Antibiofilm activity against Staphylococcus aureus ATCC 25923 after 24 hrs by crystal violet staining based assay; assay type: functional, organism-based
Escherichia coli [30] = assay: Induction of inner membrane permeabilization in Escherichia coli ATCC 43837 assessed as increase in ONPG release at 4 times of MIC by ONPG dye based assay; assay type: organism-based
Escherichia coli [31] = assay: Ratio of antibacterial activity against Escherichia coli ATCC 25922 in presence of MgCl2 to antibacterial activity against Escherichia coli ATCC 25922; assay type: functional
Pseudomonas aeruginosa [32] = assay: Antibiofilm activity against Pseudomonas aeruginosa ATCC 27853 after 24 hrs by crystal violet staining based assay; assay type: functional, organism-based
Escherichia coli [33] = assay: Ratio of antibacterial activity against Escherichia coli ATCC 25922 in presence of FeCl3 to antibacterial activity against Escherichia coli ATCC 25922; assay type: functional
Pseudomonas aeruginosa [34] = assay: Potentiation of rifampicin-induced antibacterial activity against Pseudomonas aeruginosa ATCC 27853 assessed as FICI after 18 hrs by checker board assay; assay type: functional
Escherichia coli [35] = assay: Induction of outer membrane permeabilization in Escherichia coli ATCC 25922 measured up to 12 mins by NPN-dye based assay; assay type: organism-based
Escherichia coli [36] = assay: Induction of ROS generation in Escherichia coli ATCC 25922; assay type: functional, organism-based
Staphylococcus aureus [37] = assay: Antibacterial activity against Staphylococcus aureus ATCC 25923 after 18 hrs by CLSI based broth microdilution method; assay type: functional; conditions: ATCC 25923, 18 h
Escherichia coli [38] = assay: Induction of membrane disruption in Escherichia coli ATCC 25922 assessed as corrugated membrane surface at 4 times of MIC after 2 hrs by SEM analysis; assay type: functional, organism-based

SMILES: CCCCCCCC(=O)NC(Cc1cn(CCCC[C@H](NC(C)=O)C(=O)NCC(=O)N[C@@H](CC(C)C)C(=O)N[C@@H](CC(C)C)C(=O)N[C@H](CCCCN)C(=O)N[C@@H](CCCNC(=N)N)C(=O)N[C@H](C(=O)N[C@H](CCCCN)C(=O)N[C@H](C(=O)N[C@@H](CC(C)C)C(=O)N[C@@H](CC(C)C)C(N)=O)[C@@H](C)O)[C@@H](C)CC)nn1)C(=O)NCC(=O)N[C@@H](CC(C)C)C(=O)N[C@@H](CC(C)C)C(=O)N[C@H](CCCCN)C(=O)N[C@@H](CCCNC(=N)N)C(=O)N[C@H](C(=O)N[C@H](CCCCN)C(=O)N[C@H](C(=O)N[C@@H](CC(C)C)C(=O)N[C@@H](CC(C)C)C(N)=O)[C@@H](C)O)[C@@H](C)CC (stereo partly specified)
- Activity (Escherichia coli [1]): 32.1%
- Ratio (Escherichia coli [2]): 2 - 4
- MIC (Pseudomonas aeruginosa [3]): 8 µM (≈ 21.8 µg/mL)
- Activity (Escherichia coli [4]): Active
- Activity (Escherichia coli [5]): Active
- fractional inhibitory concentration index (FICI) (Klebsiella pneumoniae [6]): 0.3125
- MIC (Escherichia coli [7]): 4 µM (≈ 10.9 µg/mL)
- selectivity ratio [8]: 11.3
- Ratio (Staphylococcus aureus [9]): 2 - 4
- fractional inhibitory concentration index (FICI) (Klebsiella pneumoniae [10]): 0.5625
- Ratio (Staphylococcus aureus [11]): 2 - 4
- Activity (Escherichia coli [12]): Active
- Activity (DNA): Dose-dependent effect
- fractional inhibitory concentration index (FICI) (Escherichia coli [13]): 0.5625
- Activity (Escherichia coli [14]): Active
- inhibition (Escherichia coli [15]): Dose-dependent effect
- Activity (Escherichia coli [16]): 13.4%
- fractional inhibitory concentration index (FICI) (Pseudomonas aeruginosa [17]): 0.5625
- MIC (Escherichia coli [18]): 8 µM (≈ 21.8 µg/mL)
- Activity (Escherichia coli [19]): Dose-dependent effect
- Activity (Escherichia coli [20]): Active
- fractional inhibitory concentration index (FICI) (Escherichia coli [21]): 0.3125
- Ratio (Escherichia coli [22]): 4
- inhibition (Escherichia coli [23]): Active
- inhibition (Pseudomonas aeruginosa [24]): Active
- Activity (Escherichia coli [25]): Active
- MIC (Staphylococcus aureus [26]): 16 µM (≈ 43.6 µg/mL)
- Ratio (Staphylococcus aureus [27]): 2 - 4
- MIC (Bacillus subtilis): 2 µM (≈ 5.45 µg/mL)
- MHC10 (Erythrocyte): 128 µM
- Ratio (Staphylococcus aureus [28]): 2 - 4
- inhibition (Staphylococcus aureus [29]): Dose-dependent effect
- Activity (Escherichia coli [30]): Active
- Ratio (Escherichia coli [31]): 2 - 4
- inhibition (Pseudomonas aeruginosa [32]): Dose-dependent effect
- Ratio (Escherichia coli [33]): 2 - 4
- fractional inhibitory concentration index (FICI) (Pseudomonas aeruginosa [34]): 0.5625
- Activity (Escherichia coli [35]): Dose-dependent effect
- Activity (Escherichia coli [36]): inactive
- MIC (Staphylococcus aureus [37]): 16 µM (≈ 43.6 µg/mL)
- Activity (Escherichia coli [38]): Active
